Measured values from US20240366577A1, “CONTROLLED LONG-TERM DRUG DELIVERY AND METHODS THEREOF” (THE JOHNS HOPKINS UNIVERSITY, priority 2021, published 2024).

Assay: in vitro release under accelerated release conditions
Format: physicochemical
Conditions: 37° C., PBS+0.3% SDS, 2.9 mg drug, 12-day time course; amorphous vs 50 μm vs 150-200 μm crystals
Description: After crystals visibly stopped precipitating or growing, the vessel was submerged in an ultrasonic water bath for 10-30 seconds to dislodge crystals from the vessel sidewall and break them into more a uniform size distributions, either smaller fines, for example 50 μm, or between 150-200 μm, as measured by brightfield and scanning electron microscopy, shown in FIGS. 2A-2B. Resultant product was then removed from the supernatant mother solution, dried, weighed, and stored for later use. On average, yielded crystal was approximately 40% of the starting powder. Furthermore, methods exist to quantify solubilized material, typically using optics to identify changes in light transmittance, and enabled testing of crystal stability in a range of aqueous solutions. […] To simulate cumulative drug release over time, all 3 mL supernatant volumes were removed and replaced with completely fresh release media at desired times of 1 hr, 4 hr, 6 hr, 8 hr, 10 hr, 1 day, 2 days, 5 days, 7 days, 10 days and 12 days, and 200 μL aliquots were measured in individual wells of a 96-well plate at 266 nm to determine solubilize sorafenib release, as shown in FIG. 2D.
Release studies were carried out under accelerated conditions in PBS with 0.3% w/v SDS in 1X PBS. […] Drug concentration in samples was measured using a UV-calibrated Tecan infinite M200 PRO. […]

Compound: CNC(=O)c1cc(Oc2ccc(NC(=O)Nc3ccc(Cl)c(C(F)(F)F)c3)cc2)ccn1 [crystalline sorafenib, sorafenib]
- release of solubilized sorafenib (cumulative): tuned by varying crystal
